Experimental data from ChEMBL document CHEMBL1130635, “4-Phenyl-4-oxo-butanoic acid derivatives inhibitors of kynurenine 3-hydroxylase” (Bioorg Med Chem Lett, 1998).

How the values were obtained:
[1] = target: Kynurenine 3-monooxygenase (Rattus norvegicus) (UniProt O88867); experiment: Inhibition of rat liver KYN 3-OHase at 100 uM concentration
[2] = target: T1, Kynureninase (Rattus norvegicus) (UniProt P70712); experiment: Compound was evaluated for inhibition of rat liver KYN ase at 100 uM concentration
T1 sequence (whole entry): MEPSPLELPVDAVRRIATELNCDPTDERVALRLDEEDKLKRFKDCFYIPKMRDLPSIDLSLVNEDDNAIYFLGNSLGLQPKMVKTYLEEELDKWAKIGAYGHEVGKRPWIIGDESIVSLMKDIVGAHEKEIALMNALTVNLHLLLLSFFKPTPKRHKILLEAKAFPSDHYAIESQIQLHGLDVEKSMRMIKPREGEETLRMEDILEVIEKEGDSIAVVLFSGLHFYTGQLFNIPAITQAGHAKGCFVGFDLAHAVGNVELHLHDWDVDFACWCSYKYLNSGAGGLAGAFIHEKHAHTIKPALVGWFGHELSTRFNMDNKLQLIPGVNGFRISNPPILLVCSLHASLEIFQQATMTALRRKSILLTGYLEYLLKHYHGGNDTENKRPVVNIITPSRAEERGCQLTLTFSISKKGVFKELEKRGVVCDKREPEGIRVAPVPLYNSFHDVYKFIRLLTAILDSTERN

[3] = test system: Pseudomonas fluorescens; experiment: Compound was evaluated for inhibition of PHBH at 100 uM concentration
[4] = target: Kynurenine/alpha-aminoadipate aminotransferase, mitochondrial (Rattus norvegicus) (UniProt Q64602); experiment: Compound was evaluated for inhibition of rat liver KAT at 100 uM concentration
[5] = target: T2, FMO (Mus musculus, UniProt Q64133+Q8BW75); experiment: Compound was evaluated for inhibition of FMO at 100 uM concentration; assay type: protein assay
T2 sequence (Q8BW75 whole entry): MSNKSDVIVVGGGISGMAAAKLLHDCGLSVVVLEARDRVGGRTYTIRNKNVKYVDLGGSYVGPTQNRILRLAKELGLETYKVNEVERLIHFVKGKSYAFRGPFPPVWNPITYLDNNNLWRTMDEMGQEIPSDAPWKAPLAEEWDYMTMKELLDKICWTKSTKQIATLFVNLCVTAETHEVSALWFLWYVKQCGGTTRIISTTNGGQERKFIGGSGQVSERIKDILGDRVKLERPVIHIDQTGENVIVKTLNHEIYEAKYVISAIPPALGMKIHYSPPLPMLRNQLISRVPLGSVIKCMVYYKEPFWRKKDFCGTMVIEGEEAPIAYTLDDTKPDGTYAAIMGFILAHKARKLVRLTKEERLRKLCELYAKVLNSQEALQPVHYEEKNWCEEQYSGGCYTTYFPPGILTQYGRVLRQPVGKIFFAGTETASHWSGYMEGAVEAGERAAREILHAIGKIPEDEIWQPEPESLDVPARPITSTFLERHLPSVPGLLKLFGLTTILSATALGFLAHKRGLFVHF
T2 sequence (Q64133 whole entry): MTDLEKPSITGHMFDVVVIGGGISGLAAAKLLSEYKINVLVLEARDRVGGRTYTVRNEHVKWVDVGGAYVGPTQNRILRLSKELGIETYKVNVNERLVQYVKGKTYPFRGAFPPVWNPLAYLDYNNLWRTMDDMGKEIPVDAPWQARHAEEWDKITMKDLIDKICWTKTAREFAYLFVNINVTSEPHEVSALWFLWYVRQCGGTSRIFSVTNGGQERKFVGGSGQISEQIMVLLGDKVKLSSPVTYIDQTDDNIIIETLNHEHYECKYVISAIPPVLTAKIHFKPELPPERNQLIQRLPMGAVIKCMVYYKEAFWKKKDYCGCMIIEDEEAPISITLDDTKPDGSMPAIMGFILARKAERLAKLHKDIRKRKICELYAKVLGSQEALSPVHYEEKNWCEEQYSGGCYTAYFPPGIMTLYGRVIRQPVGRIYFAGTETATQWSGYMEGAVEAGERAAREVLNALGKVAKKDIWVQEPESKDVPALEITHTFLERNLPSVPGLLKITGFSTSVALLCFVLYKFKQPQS

[6] = test system: Pseudomonas fluorescens; experiment: Compound was evaluated for inhibition of PHBH. at 100 uM
[7] = target: T2, FMO; experiment: Compound was evaluated for inhibition of FMO. at 100 uM; assay type: protein assay
[8] = target: T3, Kynurenine 3-monooxygenase (Rattus norvegicus, UniProt O88867); experiment: Compound was evaluated for the inhibition of rat liver KYN 3-OHase
[9] = target: Kynurenine/alpha-aminoadipate aminotransferase, mitochondrial (Rattus norvegicus) (UniProt Q64602); experiment: Compound was evaluated for inhibition of rat liver KAT at 100 uM
[10] = target: T1, Kynureninase (Rattus norvegicus); experiment: Compound was evaluated for inhibition of rat liver KYN ase at 100 uM
[11] = target: T3, Kynurenine 3-monooxygenase; experiment: Inhibition of rat brain KYN 3-OHase.
[12] = target: T3, Kynurenine 3-monooxygenase; experiment: Inhibition of rat liver KYN 3-OHase.
[13] = target: Kynurenine/alpha-aminoadipate aminotransferase, mitochondrial (Rattus norvegicus) (UniProt Q64602); experiment: Compound was evaluated for inhibition of rat liver KAT at 100 uM concentration.

Chain of Kynurenine/alpha-aminoadipate aminotransferase, mitochondrial (Rattus norvegicus) (Q64602 30-425 limits assumed): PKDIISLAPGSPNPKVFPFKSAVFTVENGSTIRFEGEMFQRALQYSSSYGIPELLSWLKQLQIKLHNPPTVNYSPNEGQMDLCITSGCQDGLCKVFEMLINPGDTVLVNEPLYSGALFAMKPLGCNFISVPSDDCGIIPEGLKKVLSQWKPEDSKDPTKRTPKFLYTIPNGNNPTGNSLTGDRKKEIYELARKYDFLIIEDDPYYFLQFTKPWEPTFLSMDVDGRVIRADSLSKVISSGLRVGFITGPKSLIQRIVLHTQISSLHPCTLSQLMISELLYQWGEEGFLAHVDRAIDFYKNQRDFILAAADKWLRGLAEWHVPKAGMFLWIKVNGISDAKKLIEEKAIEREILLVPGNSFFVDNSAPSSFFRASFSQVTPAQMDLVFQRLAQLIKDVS
Chain of Kynurenine 3-monooxygenase (Rattus norvegicus) (O88867 whole entry, looked up): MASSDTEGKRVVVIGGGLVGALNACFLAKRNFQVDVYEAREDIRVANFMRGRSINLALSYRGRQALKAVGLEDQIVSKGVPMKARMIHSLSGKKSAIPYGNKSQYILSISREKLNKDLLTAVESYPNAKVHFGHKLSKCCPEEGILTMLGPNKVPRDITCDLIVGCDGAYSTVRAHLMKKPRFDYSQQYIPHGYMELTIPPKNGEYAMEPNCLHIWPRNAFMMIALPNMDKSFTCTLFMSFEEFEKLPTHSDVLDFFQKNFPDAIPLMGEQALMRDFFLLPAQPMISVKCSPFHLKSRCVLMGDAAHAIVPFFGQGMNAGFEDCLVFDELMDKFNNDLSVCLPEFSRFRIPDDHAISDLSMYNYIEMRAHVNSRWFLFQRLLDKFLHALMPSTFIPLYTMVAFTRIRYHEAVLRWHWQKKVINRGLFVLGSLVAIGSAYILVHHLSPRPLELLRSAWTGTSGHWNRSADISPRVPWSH
T3 sequence (O88867 whole entry): as the sequence (O88867 whole entry, looked up) above

How did the inhibition [1] turn out when `COc1ccc(C(=O)CC(O)C(=O)O)cc1` (centres undefined) was run?
Its inhibition is 7%.

With `O=C(CC1(C(=O)O)CC1)c1ccc(Cl)c(Cl)c1` as the compound, how does the inhibition [1] read?
Its inhibition is 20%.

For `O=C(CC(Cc1ccccc1)C(=O)O)c1ccc(Cl)c(Cl)c1` (centres undefined), which inhibition [2] is on record?
Its inhibition is 0%.

And the inhibition [3]?
The inhibition was 8%.

What about the inhibition [4] of the same compound?
The inhibition was 8%.

And the inhibition at 100 µM [5]?
The inhibition at 100 µM was 16%.

How did the inhibition [1] turn out when `NCCC(=O)c1ccc(Cl)c(Cl)c1` was run?
Its inhibition is 2%.

For `NC(CC(=O)c1ccc(Cl)c(Cl)c1)C(=O)O` (centres undefined), which inhibition [6] is on record?
Its inhibition is 2%.

What about the inhibition at 100 µM [7] of the same compound?
Its inhibition at 100 µM is 8.5%.

And the IC50 [8]?
The IC50 was 330 nM.

What about the inhibition [9] of the same compound?
The inhibition was 14%.

What about the inhibition [10] of the same compound?
Its inhibition is 10%.

What does the source list for `O=C(CC(Cl)C(=O)O)c1ccc(Cl)c(Cl)c1` (centres undefined)?
IC50 [11]: 2200 nM; IC50 [12]: 14800 nM

Which inhibition [1] does the source give for `CC(N)(CC(=O)c1ccc(Cl)c(Cl)c1)C(=O)O` (centres undefined) here?
The inhibition was 35%.

Which results are given for `O=C(O)C(=O)/C=C(\O)c1ccc(F)c(F)c1`?
IC50 [11]: 440 nM; IC50 [12]: 1200 nM

With `CC(C)(CC(=O)c1ccc(Cl)c(Cl)c1)C(=O)O` as the compound, how does the inhibition [1] read?
Its inhibition is 21%.

For `O=C(CC(O)C(=O)O)c1cccc(Cl)c1` (centres undefined), which IC50 [11] is on record?
The IC50 was 480 nM.

What about the IC50 [12] of the same compound?
The IC50 was 1100 nM.

With `O=C(O)C(=O)/C=C(\O)c1ccc(Cl)c(Cl)c1` as the compound, how does the IC50 [11] read?
The IC50 was 950 nM.

What about the IC50 [12] of the same compound?
Its IC50 is 6400 nM.

For `O=C(CC(C(=O)O)c1ccccc1)c1ccc(Cl)c(Cl)c1` (centres undefined), which IC50 [12] is on record?
The IC50 was 19500 nM.

Which inhibition [1] does the source give for `CC(O)(CC(=O)c1ccc(Cl)c(Cl)c1)C(=O)O` (centres undefined) here?
The inhibition was 43%.

For `O=C(CC(O)C(=O)O)c1ccc(Cl)c(Cl)c1` (centres undefined), which inhibition [2] is on record?
Its inhibition is 0%.

What about the inhibition [3] of the same compound?
The inhibition was 29%.

What about the inhibition [13] of the same compound?
Its inhibition is 23%.

Which results are given for `C/C(=C\C(=O)c1ccc(Cl)c(Cl)c1)C(=O)O`?
IC50 [11]: 2200 nM; IC50 [12]: 11300 nM
